# Experimental data: paper PMC11703669 (Clinical cancer research : an official journal of the …, 2025)
# How the values were obtained:
# rats [1] = assay type: in vivo; details: after 48 hours of exposure to UV light
# [2] = Clinical drug-drug interaction with rifampin or itraconazole; assay type: in vivo
# CYP2C8 = assay: Mechanistic static DDI risk assessment with in vitro data: CYP2C8 induction; assay type: in vitro ADME; details: at the recommended dosage
# mutated IDH2 proteins = assay: Nonclinical pharmacology: inhibition of mutated IDH2; assay type: biochemical
# [3] = QTc interval assessment in patients; assay type: in vivo, human; details: elevated exposures under fed condition
# primary human AML cells = assay: Treatment of primary human AML cells; assay type: cell-based
# cytochrome P450 (CYP)3A4 = cytochrome P450 (CYP)3A4 (Homo sapiens, UniProt P08684); assay: Metabolism by cytochrome P450 enzymes; assay type: in vitro ADME; details: minor contributions from CYP2C8, CYP2C9, CYP1A2, CYP2C19
# CYP2C9 = assay: Mechanistic static DDI risk assessment with in vitro data: CYP2C9 induction; assay type: in vitro ADME; details: at the recommended dosage
# patients with R/R AML [4] = details: in vivo
# [5] = Clinical pharmacokinetics after oral administration; assay type: in vivo, human
# [6] = Food effect study in healthy subjects; assay type: in vivo, human; details: single 150 mg dose
# CYP1A2 = assay: Mechanistic static DDI risk assessment with in vitro data: CYP1A2 induction; assay type: in vitro ADME; details: at the recommended dosage
# mutated IDH1 = assay: Nonclinical pharmacology: inhibition of mutated IDH1; assay type: biochemical
# [7] = in vivo
# wild type IDH1 = wild type IDH1 (Homo sapiens, UniProt O75874); assay: Nonclinical pharmacology: inhibition of wild type IDH1; assay type: biochemical
# patients with R/R AML [8] = assay: Study 2102-HEM-101 pivotal cohort: safety
# pregnant rabbits = assay: Embryo-fetal development study in rabbits; assay type: in vivo
# CYP3A4 = assay: Mechanistic static DDI risk assessment with in vitro data: CYP3A4 induction; assay type: in vitro ADME; details: at the recommended dosage
# rats [9] = details: rat, in vivo
# pregnant rats = assay: Embryo-fetal development study in rats; assay type: in vivo
# [10] = tested on: 2-HG plasma concentrations; assay: PK/PD analysis of 2-HG plasma concentrations in patients with AML; assay type: in vivo, human; details: 150 mg BID, by the end of the first cycle; %CV 122%
# [11] = tested on: cell lines expressing mutated IDH1 proteins (R132H, R132L, R132S, R132G, and R132C); assay: 2-HG production in cell lines expressing mutated IDH1 proteins; assay type: cell-based; details: read-out: IC50 for suppression of 2-HG production
# [12] = tested on: adult patients with R/R AML harboring an IDH1 R132 mutation; assay: Study 2102-HEM-101 pivotal cohort: efficacy; assay type: in vivo, human
# [13] = tested on: adult patients with R/R AML or myelodysplastic syndrome (MDS) harboring an IDH1 R132 mutation; assay: Study 2102-HEM-101 dose escalation/expansion portion
# CYP2C19 = assay: Hepatocyte induction study: CYP2C19; assay type: in vitro ADME
# CYP2B6 = assay: Mechanistic static DDI risk assessment with in vitro data: CYP2B6 induction; assay type: in vitro ADME; details: at the recommended dosage
# OATP1B1 = assay: Mechanistic static DDI risk assessment with in vitro data: OATP1B1 inhibition; assay type: in vitro ADME; details: at the recommended dosage
# cynomolgus monkeys = details: cynomolgus monkey, in vivo
# [14] = concomitant multiple doses of rifampin, a strong CYP3A inducer
# cytochrome P450 (CYP)3A4, sequence (P08684 whole entry): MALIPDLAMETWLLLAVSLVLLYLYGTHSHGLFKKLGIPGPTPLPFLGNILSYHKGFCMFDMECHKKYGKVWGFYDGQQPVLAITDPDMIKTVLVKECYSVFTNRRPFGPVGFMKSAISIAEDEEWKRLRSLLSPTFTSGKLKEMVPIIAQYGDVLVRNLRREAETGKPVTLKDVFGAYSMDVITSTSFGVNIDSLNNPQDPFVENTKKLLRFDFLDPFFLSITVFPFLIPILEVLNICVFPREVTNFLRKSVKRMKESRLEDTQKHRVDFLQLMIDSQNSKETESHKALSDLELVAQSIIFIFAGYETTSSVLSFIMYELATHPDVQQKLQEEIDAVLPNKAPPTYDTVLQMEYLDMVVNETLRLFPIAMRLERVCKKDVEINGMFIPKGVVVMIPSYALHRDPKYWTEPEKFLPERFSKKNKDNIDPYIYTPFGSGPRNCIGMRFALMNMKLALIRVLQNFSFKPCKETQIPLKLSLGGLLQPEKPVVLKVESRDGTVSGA
# wild type IDH1, sequence (O75874 whole entry): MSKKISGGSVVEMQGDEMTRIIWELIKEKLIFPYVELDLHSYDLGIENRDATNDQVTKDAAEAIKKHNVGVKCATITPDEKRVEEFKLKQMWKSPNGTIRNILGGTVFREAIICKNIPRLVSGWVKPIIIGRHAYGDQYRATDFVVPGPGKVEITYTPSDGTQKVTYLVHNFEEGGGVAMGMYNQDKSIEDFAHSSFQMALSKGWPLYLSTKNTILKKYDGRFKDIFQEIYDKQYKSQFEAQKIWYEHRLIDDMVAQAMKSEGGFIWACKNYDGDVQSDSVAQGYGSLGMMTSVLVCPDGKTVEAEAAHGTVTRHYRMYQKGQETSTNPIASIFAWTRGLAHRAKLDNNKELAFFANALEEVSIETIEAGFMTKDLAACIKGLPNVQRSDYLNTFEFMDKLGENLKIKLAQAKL
smiles,measurement,setting,value
"C[C@H](Nc1ccc(C#N)n(C)c1=O)c1cc2cc(Cl)ccc2[nH]c1=O [Olutasidenib, olutasidenib]",phototoxicity finding,rats [1],erythema in the skin
same,differences in PK with itraconazole,"[2]; concomitant multiple doses of itraconazole, a strong CYP3A and P-gp inhibitor",No clinically significant differences
same,decrease of AUC with rifampin,[2]; [14],80%
same,decrease of Cmax with rifampin,[2]; [14],43%
same,CYP2C8 induction potential,CYP2C8,may induce
same,inhibitory activity against mutated IDH2 proteins,mutated IDH2 proteins,little or no inhibitory activity
same,QT prolongation expected under a fed condition,[3],≤ 30 ms
same,2-HG production,primary human AML cells,suppressed 2-HG production
same,cell differentiation,primary human AML cells,induced granulocytic/monocytic cell differentiation
same,cell proliferation,primary human AML cells,increased cell proliferation
same,share of metabolism by CYP3A4,cytochrome P450 (CYP)3A4,90%
same,CYP2C9 induction potential,CYP2C9,may induce
same,"Abdominal Pain, Any Grade",patients with R/R AML [4]; human,28 (18)
same,"Abdominal Pain, Grade ≥3",patients with R/R AML [4]; human,1 (1)
same,"Arthralgia, Any Grade",patients with R/R AML [4]; human,43 (28)
same,"Arthralgia, Grade ≥3",patients with R/R AML [4]; human,4 (3)
same,"Constipation, Any Grade",patients with R/R AML [4]; human,39 (26)
same,"Constipation, Grade ≥3",patients with R/R AML [4]; human,0
same,"Cough, Any Grade",patients with R/R AML [4]; human,26 (17)
same,"Cough, Grade ≥3",patients with R/R AML [4]; human,1 (1)
same,"Diarrhea, Any Grade",patients with R/R AML [4]; human,31 (20)
same,"Diarrhea, Grade ≥3",patients with R/R AML [4]; human,2 (1)
same,"Differentiation Syndrome, Any Grade",patients with R/R AML [4]; human,25 (16)
same,"Differentiation Syndrome, Grade ≥3",patients with R/R AML [4]; human,13 (8)
same,"Dyspnea, Any Grade",patients with R/R AML [4]; human,37 (24)
same,"Dyspnea, Grade ≥3",patients with R/R AML [4]; human,4 (3)
same,"Edema, Any Grade",patients with R/R AML [4]; human,27 (18)
same,"Edema, Grade ≥3",patients with R/R AML [4]; human,4 (3)
same,"Fatigue/Malaise, Any Grade",patients with R/R AML [4]; human,55 (36)
same,"Fatigue/Malaise, Grade ≥3",patients with R/R AML [4]; human,2 (1)
same,Grade 3 or higher adverse reaction: dyspnea,patients with R/R AML [4]; human,5%
same,Grade 3 or higher adverse reaction: hypertension,patients with R/R AML [4]; human,5%
same,Grade 3 or higher adverse reaction: leukocytosis,patients with R/R AML [4]; human,9%
same,Grade 3 or higher adverse reaction: transaminitis,patients with R/R AML [4]; human,12%
same,Grade 3 or higher differentiation syndrome,patients with R/R AML [4]; human,8%
same,"Headache, Any Grade",patients with R/R AML [4]; human,19 (13)
same,"Headache, Grade ≥3",patients with R/R AML [4]; human,0
same,"Hypertension, Any Grade",patients with R/R AML [4]; human,16 (10)
same,"Hypertension, Grade ≥3",patients with R/R AML [4]; human,7 (5)
same,"Leukocytosis, Any Grade",patients with R/R AML [4]; human,38 (25)
same,"Leukocytosis, Grade ≥3",patients with R/R AML [4]; human,14 (9)
same,"Mucositis, Any Grade",patients with R/R AML [4]; human,35 (23)
same,"Mucositis, Grade ≥3",patients with R/R AML [4]; human,5 (3)
same,"Nausea, Any Grade",patients with R/R AML [4]; human,57 (38)
same,"Nausea, Grade ≥3",patients with R/R AML [4]; human,0
same,"Pyrexia, Any Grade",patients with R/R AML [4]; human,36 (24)
same,"Pyrexia, Grade ≥3",patients with R/R AML [4]; human,1 (1)
same,"QTc prolongation TEAE, Grade 3 or higher",patients with R/R AML [4]; human,1%
same,"QTc prolongation TEAE, any grade",patients with R/R AML [4]; human,8%
same,"Rash, Any Grade",patients with R/R AML [4]; human,36 (24)
same,"Rash, Grade ≥3",patients with R/R AML [4]; human,2 (1)
same,"Transaminitis, Any Grade",patients with R/R AML [4]; human,31 (20)
same,"Transaminitis, Grade ≥3",patients with R/R AML [4]; human,18 (12)
same,"Vomiting, Any Grade",patients with R/R AML [4]; human,25 (16)
same,"Vomiting, Grade ≥3",patients with R/R AML [4]; human,1 (1)
same,"differentiation syndrome (DS), all grades",patients with R/R AML [4]; human,16%
same,dose reductions due to adverse reactions,patients with R/R AML [4]; human,11%
same,median time to onset of DS,patients with R/R AML [4]; human,14 days
same,median time to onset of transaminitis,patients with R/R AML [4]; human,1.2 months
same,median time to resolution of transaminitis,patients with R/R AML [4]; human,12 days
same,patients who discontinued therapy due to an AR,patients with R/R AML [4]; human,8%
same,patients with DS who had olutasidenib held,patients with R/R AML [4]; human,44%
same,patients with DS who recovered after treatment or dosage interruption,patients with R/R AML [4]; human,76%
same,patients with a Grade 3 or 4 TEAE,patients with R/R AML [4]; human,84%
same,patients with a Grade 3 or 4 hepatotoxicity TEAE,patients with R/R AML [4]; human,13%
same,patients with dose held due to QTc prolongation,patients with R/R AML [4]; human,1%
same,patients with therapy discontinued due to a hepatobiliary AR,patients with R/R AML [4]; human,5%
same,patients with therapy reduced due to a hepatobiliary AR,patients with R/R AML [4]; human,6%
same,patients with treatment interrupted due to an AR,patients with R/R AML [4]; human,32%
same,rate of ALT elevation,patients with R/R AML [4]; human,46%
same,rate of AST elevation,patients with R/R AML [4]; human,47%
same,treatment discontinuation due to DS,patients with R/R AML [4]; human,3%
same,treatment discontinuation due to gallbladder disorders,patients with R/R AML [4]; human,1%
same,treatment discontinuation due to transaminitis,patients with R/R AML [4]; human,3%
same,treatment interruption due to DS,patients with R/R AML [4]; human,7%
same,treatment interruption due to transaminitis,patients with R/R AML [4]; human,10%
same,Hy's Law cases,patients with R/R AML [4],no confirmed Hy’s Law cases
same,patients with dose reduced or discontinued due to QTc prolongation,patients with R/R AML [4],no patients
same,dose proportionality of Cmax and AUC,[5]; dose range of 100 to 300 mg,increased less than proportionally
same,time to steady-state plasma levels,"[5]; human, in vivo",≤ 14 days
same,half-life,"[5]; human, plasma, po",~67 h
same,time to maximum plasma concentration (Cmax),[5]; oral administration,approximately 4 hours
same,mean increase of AUCinf with a high-fat meal,[6]; CV% 18.3%,83%
same,mean increase of Cmax with a high-fat meal,[6]; CV% 20.6%,191%
same,CYP1A2 induction potential,CYP1A2,may induce
same,inhibitory activity against mutated IDH1,mutated IDH1,inhibited
same,tissue distribution,[7],binding of olutasidenib to melanin-containing tissues
same,inhibitory activity against wild type IDH1,wild type IDH1,little or no inhibitory activity
same,deaths due to complications from DS,"patients with R/R AML [8]; 2 deaths, of on treatment deaths",4%
same,30-day mortality,patients with R/R AML [8]; 13 patients,8%
same,deaths on treatment (on or within 28 days of the last dose),patients with R/R AML [8]; 45 deaths,29%
same,total deaths,patients with R/R AML [8]; 101 of 153 patients,66%
same,on treatment deaths due to underlying AML or complications from AML,patients with R/R AML [8]; thirty-seven of 45 on treatment deaths,82%
same,embryo-fetal development findings,pregnant rabbits,embryo-fetal death and altered fetal growth
same,CYP3A4 induction potential,CYP3A4,may induce
same,general toxicology findings,rats [9],"altered glucose and lipid metabolism, inflammation, and the GI tract, liver, kidney, and cardiovascular system as the main organs of toxicity"
same,embryo-fetal development findings,pregnant rats,embryo-fetal death and altered fetal growth
same,mean reduction of 2-HG plasma concentration,[10],59.1%
same,IC50,[11],8 to 116 nM
same,CR + CRh rate,"[12]; 150 mg BID, 147 efficacy-evaluable patients, 95% CI 27-43%",35%
same,"CR + CRh, n (%)","[12]; 150mg BID, N=147",51 (35) n (%)
same,"CR, n (%)","[12]; 150mg BID, N=147",47 (32) n (%)
same,Median DOCR,"[12]; 150mg BID, N=147",28.1 months
same,Median DOCRh,"[12]; 150mg BID, N=147",3.6 months
same,"median duration of CR + CRh (DOCR + CRh, duration of response)","[12]; 150 mg BID, N=147, 95% CI 13.5, NR",25.9 months
same,conversion from transfusion dependence (TD) to transfusion independence (TI),[12]; 29 of 86 patients TD at baseline,34%
same,maintenance of TI in patients TI at baseline,[12]; 39/61 patients,64%
same,CR + CRh rate at interim analysis for efficacy,"[12]; 41 out of 123 efficacy evaluable subjects, 95% CI 25.1%-42.4%",33%
same,patients able to proceed to allogeneic stem cell transplantation after treatment,[12]; sixteen of 147 patients,11%
same,"patients with CR, CRh or CRi (preliminary efficacy)","[13]; 150mg BID, dose escalation/expansion portion, 5/13 patients",38%
same,dose-limiting toxicities,[13]; dose escalation,no dose-limiting toxicities observed
same,potential to induce CYP2C19,CYP2C19,cannot be ruled out
same,CYP2B6 induction potential,CYP2B6,may induce
same,OATP1B1 inhibition potential,OATP1B1,inhibit
same,general toxicology findings,cynomolgus monkeys,"altered glucose and lipid metabolism, inflammation, and the GI tract, liver, kidney, and cardiovascular system as the main organs of toxicity"
